In PMC8445441, “Elucidating the mechanism by which synthetic helper peptides sensitize Pseudomonas aeruginosa to multiple antibiotics” (PLoS Pathogens, 2021):
Read-outs that look alike come from different tables or passages of the source.

Experiments:
[1] = test system: P. aeruginosa NR-31040; experiment: microbe, parasite or virus in culture; set-up: MICa: MIC of the antibiotic / MICac: MIC of the antibiotic in the combination: unit not given beside the values; settings: for MIC: Pseudomonas aeruginosa, NR31040, 18 h, read-out: MICa: MIC of the antibiotic; for FICI / MICac: MIC of the antibiotic in the combination: strain NR-31040; for FICI: antibiotic + D-11 (MICb/MICbc 128/4); for MICac: MIC of the antibiotic in the combination: with D-11 at MICbc 4, unit not given
Method in brief: (§1)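 Growth inhibition was scored by eye after an 18 h, 37 °C incubation of drug-bacteria mixtures in Mueller-Hinton broth. Inoculum suspension held approximately 1 × 10^6 CFU/mL before 1:1 mixing.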

[2] = test system: P. aeruginosa NR-31041; experiment: microbe, parasite or virus in culture; set-up: MICa: MIC of the antibiotic / MICac: MIC of the antibiotic in the combination: unit not given beside the values; settings: for MIC: Pseudomonas aeruginosa, NR31041, 18 h, read-out: MICa: MIC of the antibiotic; for FICI / MICac: MIC of the antibiotic in the combination: strain NR-31041; for FICI: antibiotic + D-11 (MICb/MICbc 64/4); for MICac: MIC of the antibiotic in the combination: with D-11 at MICbc 4, unit not given
Method in brief: as §1

[3] = test system: P. aeruginosa PAK; experiment: microbe, parasite or virus in culture; set-up: MICa: MIC of the antibiotic / MICac: MIC of the antibiotic in the combination: unit not given beside the values; settings: for MIC: Pseudomonas aeruginosa, 18 h, read-out: MICa: MIC of the antibiotic; for FICI / MICac: MIC of the antibiotic in the combination: strain PAK; for FICI: antibiotic + D-11 (MICb/MICbc 64/4); for MICac: MIC of the antibiotic in the combination: with D-11 at MICbc 4, unit not given
Method in brief: as §1

[4] = test system: P. aeruginosa PA14; experiment: microbe, parasite or virus in culture; set-up: MICa: MIC of the antibiotic / MICac: MIC of the antibiotic in the combination: unit not given beside the values; settings: for MIC: Pseudomonas aeruginosa, PA14, 18 h, read-out: MICa: MIC of the antibiotic; for FICI / MICac: MIC of the antibiotic in the combination: strain PA14; for FICI: antibiotic + D-11 (MICb/MICbc 128/4); for MICac: MIC of the antibiotic in the combination: with D-11 at MICbc 4, unit not given
Method in brief: as §1

[5] = test system: P. aeruginosa ATCC27853; experiment: microbe, parasite or virus in culture; set-up: MICa: MIC of the antibiotic / MICac: MIC of the antibiotic in the combination: unit not given beside the values; settings: for MIC: Pseudomonas aeruginosa, ATCC27853, 18 h, read-out: MICa: MIC of the antibiotic; for FICI / MICac: MIC of the antibiotic in the combination: strain ATCC27853; for FICI: antibiotic + D-11 (MICb/MICbc 32/4); for MICac: MIC of the antibiotic in the combination: with D-11 at MICbc 4, unit not given
Method in brief: as §1

[6] = test system: P. aeruginosa AUMC-Pa-1; settings: strain AUMC-Pa-1; antibiotic + D-11 (MICb/MICbc 128/4)
Method in brief: as §1

[7] = test system: P. aeruginosa AUMC-Pa-2; settings: strain AUMC-Pa-2; antibiotic + D-11 (MICb/MICbc 64/4)
Method in brief: as §1

[8] = test system: clinical P. aeruginosa isolates; experiment: microbe, parasite or virus in culture; settings: Pseudomonas aeruginosa, 18 h, antibiotic alone
Method in brief: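 Broth microdilution per CLSI in MHB, two-fold drug dilutions mixed with an equal volume of bacteria at about 1 × 10^6 CFU/mL. After 18 h at 37 °C, MIC taken as the lowest concentration with no visible growth; run in triplicate.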

[9] = test system: P. aeruginosa HM-214; settings: strain HM-214; antibiotic + D-11 (MICb/MICbc 128/4)
Method in brief: as §1

[10] = test system: P. aeruginosa AUMC-Pa-6; experiment: microbe, parasite or virus in culture; settings: for MIC: Pseudomonas aeruginosa, AUMCPA6, 18 h, read-out: MICa: MIC of the antibiotic; for FICI / MICac: MIC of the antibiotic in the combination: strain AUMC-Pa-6; for FICI: antibiotic + D-11 (MICb/MICbc 64/4); for MICac: MIC of the antibiotic in the combination: with D-11 at MICbc 4, unit not given
Method in brief: as §1

[11] = test system: P. aeruginosa AUMC-Pa-4; experiment: microbe, parasite or virus in culture; settings: for MIC: Pseudomonas aeruginosa, AUMCPA4, 18 h, read-out: MICa: MIC of the antibiotic; for FICI / MICac: MIC of the antibiotic in the combination: strain AUMC-Pa-4; for FICI: antibiotic + D-11 (MICb/MICbc 128/4); for MICac: MIC of the antibiotic in the combination: with D-11 at MICbc 4, unit not given
Method in brief: as §1

[12] = test system: P. aeruginosa AUMC-Pa-5; experiment: microbe, parasite or virus in culture; settings: for MIC: Pseudomonas aeruginosa, AUMCPA5, 18 h, read-out: MICa: MIC of the antibiotic; for FICI / MICac: MIC of the antibiotic in the combination: strain AUMC-Pa-5; for FICI: antibiotic + D-11 (MICb/MICbc 64/4); for MICac: MIC of the antibiotic in the combination: with D-11 at MICbc 4, unit not given
Method in brief: as §1

[13] = test system: P. aeruginosa PAO1; experiment: microbe, parasite or virus in culture; settings: PAO1; for MIC: Pseudomonas aeruginosa, PAO1, 18 h, read-out: MICa: the MIC of antibiotics, S3 Table, antibiotic alone; for FICI / MICac: the MIC for the antibiotic in the combination: S3 Table
Method in brief: as §1

[14] = test system: P. aeruginosa AUMC-Pa-3; experiment: microbe, parasite or virus in culture; settings: for MIC: Pseudomonas aeruginosa, AUMCPA3, 18 h, read-out: MICa: MIC of the antibiotic; for FICI / MICac: MIC of the antibiotic in the combination: strain AUMC-Pa-3; for FICI: antibiotic + D-11 (MICb/MICbc 128/4); for MICac: MIC of the antibiotic in the combination: with D-11 at MICbc 4, unit not given
Method in brief: as §1

[15] = read-out: Antibiotic sensibility (MIC) of clinical P. aeruginosa isolate AUMC-Pa-1, strain AUMC-Pa-1
[16] = read-out: Antibiotic sensibility (MIC) of clinical P. aeruginosa isolate AUMC-Pa-2, strain AUMC-Pa-2
[17] = read-out: Antibiotic sensibility (MIC) of clinical P. aeruginosa isolate AUMC-Pa-3, strain AUMC-Pa-3
[18] = read-out: Antibiotic sensibility (MIC) of clinical P. aeruginosa isolate AUMC-Pa-4, strain AUMC-Pa-4
[19] = read-out: Antibiotic sensibility (MIC) of clinical P. aeruginosa isolate AUMC-Pa-5, strain AUMC-Pa-5
[20] = read-out: Antibiotic sensibility (MIC) of clinical P. aeruginosa isolate AUMC-Pa-6, strain AUMC-Pa-6
[21] = read-out: Antibiotic sensibility (MIC) of clinical P. aeruginosa isolate HM-214, strain HM-214
[22] = read-out: Antibiotic sensibility (MIC) of clinical P. aeruginosa isolate NR-31040, strain NR-31040
[23] = read-out: Antibiotic sensibility (MIC) of clinical P. aeruginosa isolate NR-31041, strain NR-31041

For `C[C@H]1COc2c(N3CCN(C)CC3)c(F)cc3c(=O)c(C(=O)O)cn1c23` [Levofloxacin], the MIC [1] was 1 µM, the FICI [1] was 0.281 and the “MICac: MIC of the antibiotic in the combination” value (from here on “MICac: MIC of the antibiotic”) [1] was 0.25. The MIC [2] was 1 µM, the FICI [2] was 0.313 and the “MICac: MIC of the antibiotic” value [2] was 0.25. The MIC [3] was 0.5 µM, the FICI [3] was 0.563 and the “MICac: MIC of the antibiotic” value [3] was 0.25. For the same molecule, the MIC [4] was 0.5 µM, the FICI [4] was 0.531 and the “MICac: MIC of the antibiotic” value [4] was 0.25. The MIC [5] was 1 µM, the FICI [5] was 0.250 and the “MICac: MIC of the antibiotic” value [5] was 0.125. The FICI [6] was 0.156, the FICI [7] was 0.563 and the MIC [8, 15] was 8 µM. The MIC [8, 16] was 0.5 µM, the MIC [8, 17] was 0.5 µM and the MIC [8, 18] was 0.5 µM. It also gave an MIC [8, 19] of 0.5 µM, an MIC [8, 20] of 0.25 µM and an MIC [8, 21] of 1 µM. The MIC [8, 22] was 1 µM, the MIC [8, 23] was 1 µM and the FICI [9] was 0.531. For the same molecule, the MIC [10] was 0.25 µM, the FICI [10] was 1.063 and the “MICac: MIC of the antibiotic” value [10] was 0.25/0.25. For the same molecule, the MIC [11] was 0.5 µM, the FICI [11] was 0.531 and the “MICac: MIC of the antibiotic” value [11] was 0.25. The MIC [12] was 0.5 µM, the FICI [12] was 2.063 and the “MICac: MIC of the antibiotic” value [12] was 1. The MIC [13] was 1 µM, the FICI ([13]; antibiotic + 2 μM D-11) was 0.125 and the FICI ([13]; antibiotic + 4 μM D-11) was 0.156. For the same molecule, the “MICac: the MIC for the antibiotic in the combination” value (shortened to “MICac: the MIC for the antibiotic”) ([13]; with 2 μM D-11) was 0.0625 µM, the “MICac: the MIC for the antibiotic” value ([13]; with 4 μM D-11) was 0.03125 µM and the MIC [14] was 0.5 µM. For the same molecule, the FICI [14] was 0.281 and the “MICac: MIC of the antibiotic” value [14] was 0.125.
In the case of `CCn1cc(C(=O)O)c(=O)c2ccc(C)nc21` [Nalidixic Acid], the MIC [1] is reported as over 128 µM, the FICI [1] is reported as 0.063 and the “MICac: MIC of the antibiotic” value [1] is reported as 8. The MIC [2] was over 128 µM, the FICI [2] was 0.125 and the “MICac: MIC of the antibiotic” value [2] was 16. For the same molecule, the MIC [3] was over 128 µM, the FICI [3] was 0.125 and the “MICac: MIC of the antibiotic” value [3] was 16. The MIC [4] was over 128 µM, the FICI [4] was 0.094 and the “MICac: MIC of the antibiotic” value [4] was 16. For the same molecule, the MIC [5] was over 128 µM, the FICI [5] was 0.156 and the “MICac: MIC of the antibiotic” value [5] was 8. The FICI [6] was 0.531, the FICI [7] was 0.188 and the MIC [8, 15] was over 128 µM. The MIC [8, 16] was over 128 µM, the MIC [8, 17] was over 128 µM and the MIC [8, 18] was over 128 µM. It also gave an MIC [8, 19] of over 128 µM, an MIC [8, 20] of over 128 µM and an MIC [8, 21] of over 128 µM. For the same molecule, the MIC [8, 22] was over 128 µM, the MIC [8, 23] was over 128 µM and the FICI [9] was 0.531. For the same molecule, the MIC [10] was over 128 µM, the FICI [10] was 0.188 and the “MICac: MIC of the antibiotic” value [10] was 32. For the same molecule, the MIC [11] was over 128 µM, the FICI [11] was 0.531 and the “MICac: MIC of the antibiotic” value [11] was >128/128. The MIC [12] was over 128 µM, the FICI [12] was 1.063 and the “MICac: MIC of the antibiotic” value [12] was >128/>128. The MIC [13] was over 128 µM, the FICI ([13]; antibiotic + 2 μM D-11) was 0.094 and the FICI ([13]; antibiotic + 4 μM D-11) was 0.141. The “MICac: the MIC for the antibiotic” value ([13]; with 2 μM D-11) was 8 µM, the “MICac: the MIC for the antibiotic” value ([13]; with 4 μM D-11) was 4 µM and the MIC [14] was over 128 µM. The FICI [14] was 0.063 and the “MICac: MIC of the antibiotic” value [14] was 8.
